These results are taken from patent US20090247558A1, “USE OF THE CRH (CORTICOTROPIN RELEASING HORMONE) - UCN (UROCORTIN) SYSTEM IN THE TREATMENT OF INFLAMMATORY DISEASES” (priority 2002, published 2009).

Assay [1] deals with primary bone marrow macrophages. Kind of assay: Apoptosis of primary bone marrow macrophages. The format is cell-based. As for the experimental part: (§1) Cells were plated in 96-well plates at an initial concentration of 10,000 cells per well. Apoptosis was measured by direct determination of nucleosomal DNA fragmentation with the “cell death detection” ELISA plus kit according to the manufacturer's protocol.
(§2) Cells were treated with UCN and/or LPS at the indicated concentrations for different time points, collected in PBS and incubated with 7-amino-actinomycin (7AAD) for 10 minutes. Cells were washed and analyzed by Flow Cytometry (Coulter).

The next assay deals with RAW-264.7 macrophages. Kind of assay: Apoptosis and proliferation of RAW264.7 macrophages (nucleosome formation, flow cytometry). Type of assay: cell-based, mouse. As for the experimental part:
as §1, §2

Another assay deals with RAW264.7 cells. Put plainly: Stress kinase, Bax and Fas Ligand in RAW264.7 cells (Western blot). Type of assay: cell-based, mouse. How it is done: Following stimulation cells were harvested and lyzed in 62.5 mM Tris HCl pH=6.8, 10% glycerol, 2% SDS, and freshly added inhibitors phenylmethylsulfonyl fluoride (10 μg/ml), 0.5 mM DTT and 50 mM Na2F.
A general note: Immunoblotting shows a protein as a band on a membrane.

The target in the next assay is T1, CRH-R2 receptor (Mus musculus, UniProt Q60748).
T1 construct: monocyte/macrophage cells which express both the CRH-R1 and the CRH-R2 receptors on the surface; endogenous in cells; host or cells: macrophages
As to conditions: cited from earlier work.

No end group written: not given here.

T1 sequence (Q60748 whole entry): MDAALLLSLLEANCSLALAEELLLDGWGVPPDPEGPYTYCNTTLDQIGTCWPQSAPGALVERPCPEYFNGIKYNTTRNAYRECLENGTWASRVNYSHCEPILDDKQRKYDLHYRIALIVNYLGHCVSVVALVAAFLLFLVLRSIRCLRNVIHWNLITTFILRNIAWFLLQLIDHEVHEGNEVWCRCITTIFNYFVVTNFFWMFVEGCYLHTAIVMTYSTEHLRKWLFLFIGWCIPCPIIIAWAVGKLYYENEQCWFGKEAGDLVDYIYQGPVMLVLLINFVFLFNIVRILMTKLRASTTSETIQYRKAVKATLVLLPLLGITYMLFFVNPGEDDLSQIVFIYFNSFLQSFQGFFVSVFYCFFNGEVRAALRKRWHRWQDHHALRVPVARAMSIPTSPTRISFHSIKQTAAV

On to “urocortin (DNPSLSIDLTFHLLRTLLELARTQSQRERAEQNRIIFDSV; ends and bridges not checked; UniProt P55089 83-122, looked up) [UCN]”, for which, in assay [1], the LPS-induced apoptosis result was “enhanced”. In the assay with RAW-264.7 macrophages (cells cultured in the presence of serum), the cell proliferation result was “promoted cell proliferation”. For the same substance, in the assay with RAW-264.7 macrophages (serum-deprived, LPS-induced cells, 10^−9M UCN, 10 μg/ml LPS), the apoptosis result is “promoted apoptosis”. The “LPS-induced p38MAPK and JNK activation” value in the assay on RAW264.7 cells (UCN plus LPS) was “enhances”. Besides, in the assay on RAW264.7 cells (UCN treatment), the Bax result was “upregulation”; the “Fas Ligand expression” value was “enhancement”; the “activation of the stress-induced kinases JNK and p38MAPK” value is listed as “rapid activation”. Besides, the apoptosis on macrophages entry with CRH-R2 receptor was “induce apoptosis”.
